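Tested at 5 concentrations; 48 h exposure; 96-well plates; endpoints linearly interpolated, else capped at highest concentration. At the TGI there is no net growth.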
Experiments:
Assay in all cases: NCI anticancer screen, dose series, 48 h
[1] = system: HCC-2998 colon
[2] = system: UACC-257 melanoma
[3] = system: OVCAR-3 ovarian
[4] = system: SK-MEL-5 melanoma
[5] = system: RXF 393 renal
[6] = system: U251 CNS
[7] = system: RXF-631 renal
[8] = system: NCI-H23 lung
[9] = system: SK-MEL-28 melanoma
[10] = system: RPMI-8226 leukemia
[11] = system: KM12 colon
[12] = system: HT29 colon
[13] = system: NCI-H460 lung
[14] = system: A549 NSCLC
[15] = system: SF-295 CNS
[16] = system: HCT-15 colon
[17] = system: MOLT-4 leukemia
[18] = system: SK-OV-3 ovarian
[19] = system: A498 renal
[20] = system: SN12C renal
[21] = system: COLO 205 colon
[22] = system: SW-620 colon
[23] = system: DMS 273 small cell lung
[24] = system: UACC-62 melanoma
[25] = system: MALME-3M melanoma
[26] = system: DLD-1 colon
[27] = system: LOX IMVI melanoma
[28] = system: HOP-18 NSCLC
[29] = system: EKVX NSCLC
[30] = system: TK-10 renal
[31] = system: CCRF-CEM leukemia
[32] = system: K-562 leukemia
[33] = system: M19-MEL melanoma
[34] = system: 786-0 renal
[35] = system: SNB-78 CNS
[36] = system: HOP-92 NSCLC
[37] = system: UO-31 renal
[38] = system: SNB-75 CNS
[39] = system: LXFL 529 NSCLC
[40] = system: OVCAR-8 ovarian
[41] = system: SF-539 CNS
[42] = system: CAKI-1 renal
[43] = system: IGROV1 ovarian
[44] = system: HCT-116 colon
[45] = system: NCI-H522 lung
[46] = system: ACHN renal
[47] = system: KM20L2 colon
[48] = system: OVCAR-4 ovarian
[49] = system: OVCAR-5 ovarian
[50] = system: SR leukemia
[51] = system: DMS 114 small cell lung
[52] = system: HL-60(TB) leukemia
[53] = system: SF-268 CNS
[54] = system: NCI-H226 lung
[55] = system: SNB-19 CNS
[56] = system: M14 melanoma
[57] = system: HOP-62 NSCLC
[58] = system: SK-MEL-2 melanoma
[59] = system: XF 498 CNS

COC1=CC(=C(C#N)C(=Nc2ccccc2)SC)C=C(OC)C1=O
TGI [1]: > 100 µM | TGI [2]: > 100 µM | TGI [3]: > 100 µM | TGI [4]: 42.7 µM | TGI [5]: 78 µM | TGI [6]: 2.62 µM | TGI [7]: > 100 µM | TGI [8]: > 100 µM | TGI [9]: > 100 µM | TGI [10]: 52.2 µM | TGI [11]: > 100 µM | TGI [12]: > 100 µM | TGI [13]: > 100 µM | TGI [14]: > 100 µM | TGI [15]: > 100 µM | TGI [16]: > 100 µM | TGI [17]: 53.1 µM | TGI [18]: > 100 µM | TGI [19]: 80 µM | TGI [20]: > 100 µM | TGI [21]: > 100 µM | TGI [22]: > 100 µM | TGI [23]: > 100 µM | TGI [24]: > 100 µM | TGI [25]: > 100 µM | TGI [26]: 77.3 µM | TGI [27]: > 100 µM | TGI [28]: > 100 µM | TGI [29]: > 100 µM | TGI [30]: > 100 µM | TGI [31]: 43.5 µM | TGI [32]: 63.1 µM | TGI [33]: > 100 µM | TGI [34]: > 100 µM | TGI [35]: > 100 µM | TGI [36]: 9.97 µM | TGI [37]: > 100 µM | TGI [38]: > 100 µM | TGI [39]: 36.2 µM | TGI [40]: > 100 µM | TGI [41]: > 100 µM | TGI [42]: > 100 µM | TGI [43]: > 100 µM | TGI [44]: > 100 µM | TGI [45]: > 100 µM | TGI [46]: > 100 µM

O=c1c(O)c(-c2ccccc2)n(O)c2ccc(Cl)cc12
TGI [1]: 40.1 µM | TGI [47]: 83.9 µM | TGI [48]: > 100 µM | TGI [2]: > 100 µM | TGI [3]: > 100 µM | TGI [49]: 95.3 µM | TGI [50]: > 100 µM | TGI [4]: 42.1 µM | TGI [5]: 63 µM | TGI [51]: 54.9 µM | TGI [6]: > 100 µM | TGI [7]: > 100 µM | TGI [52]: 62.8 µM | TGI [8]: > 100 µM | TGI [9]: > 100 µM | TGI [10]: > 100 µM | TGI [11]: 80.9 µM | TGI [12]: > 100 µM | TGI [13]: 69.2 µM | TGI [14]: > 100 µM | TGI [15]: > 100 µM | TGI [16]: 49.6 µM | TGI [17]: > 100 µM | TGI [18]: 78.6 µM | TGI [19]: 78.4 µM | TGI [53]: > 100 µM | TGI [20]: 49.8 µM | TGI [21]: > 100 µM | TGI [22]: 34.5 µM | TGI [23]: 58.6 µM | TGI [24]: 55.3 µM | TGI [25]: > 100 µM | TGI [26]: > 100 µM | TGI [27]: 27.2 µM | TGI [28]: > 100 µM | TGI [30]: 72.3 µM | TGI [31]: > 100 µM | TGI [54]: 45.1 µM | TGI [55]: > 100 µM | TGI [32]: > 100 µM | TGI [34]: > 100 µM | TGI [35]: > 100 µM | TGI [36]: 96.5 µM | TGI [37]: > 100 µM | TGI [38]: 80.8 µM | TGI [39]: 64 µM | TGI [40]: 52.1 µM | TGI [41]: 48 µM | TGI [56]: > 100 µM | TGI [42]: 71.1 µM | TGI [57]: 60.3 µM | TGI [43]: 89.9 µM | TGI [44]: 24.6 µM | TGI [58]: 58.6 µM | TGI [45]: 51.7 µM | TGI [46]: 74 µM

CC1CCN(CCC(=O)CC(c2ccccc2)c2c(O)c3ccccc3oc2=O)CC1 (centres undefined)
TGI [47]: > 100 µM | TGI [48]: > 100 µM | TGI [2]: > 100 µM | TGI [3]: > 100 µM | TGI [50]: > 100 µM | TGI [4]: > 100 µM | TGI [5]: > 100 µM | TGI [51]: > 100 µM | TGI [6]: > 100 µM | TGI [7]: > 100 µM | TGI [52]: > 100 µM | TGI [8]: > 100 µM | TGI [9]: > 100 µM | TGI [10]: > 100 µM | TGI [11]: > 100 µM | TGI [12]: > 100 µM | TGI [13]: > 100 µM | TGI [14]: > 100 µM | TGI [15]: > 100 µM | TGI [16]: > 100 µM | TGI [17]: > 100 µM | TGI [18]: > 100 µM | TGI [19]: > 100 µM | TGI [53]: > 100 µM | TGI [21]: > 100 µM | TGI [22]: > 100 µM | TGI [23]: > 100 µM | TGI [24]: > 100 µM | TGI [26]: > 100 µM | TGI [27]: > 100 µM | TGI [29]: > 100 µM | TGI [59]: > 100 µM | TGI [30]: > 100 µM | TGI [31]: > 100 µM | TGI [54]: > 100 µM | TGI [55]: > 100 µM | TGI [32]: > 100 µM | TGI [33]: > 100 µM | TGI [34]: > 100 µM | TGI [35]: > 100 µM | TGI [37]: > 100 µM | TGI [38]: > 100 µM | TGI [40]: > 100 µM | TGI [41]: > 100 µM | TGI [56]: > 100 µM | TGI [42]: > 100 µM | TGI [57]: > 100 µM | TGI [43]: > 100 µM | TGI [44]: > 100 µM | TGI [58]: > 100 µM | TGI [45]: > 100 µM | TGI [46]: > 100 µM
